Values joined by “and” are separate entries in the source; they are usually repeats but may differ in a detail not shown here. Equal entries are not always repeated. Some results are limits rather than exact numbers.

The values that follow come from PubChem BioAssay AID1963433 (Molecular Pharmacology Branch, DTP, NCI, 2024).

This experiment relates to 772245-204-R-J1-PDC complex spheroid growth. Nature of the experiment: Anticancer human tumor 772245-204-R-J1-PDC patient-derived rhabdomyosarcoma cell line growth inhibition [Asc]. The settings on record: for viability, T/C: stronger effect = lower value. The procedure: Multicellular complex tumor spheroid response to apoptosis pathway targeting inhibitors Alrizomadlin, Pelcitoclax, and Dasminapant in combination with a variety of drugs and investigational agents in selected tumor cell lines
The MDM2 inhibitor alrizomadlin, the Bcl-2/Bcl-xL inhibitor pelcitoclax, and the IAPs inhibitor dasminapant were evaluated both individually and in combination with standard of care and investigational anticancer small molecules within a complex spheroid model of solid tumors. . Complex spheroids include a stromal component modeled by human endothelial cells (HUVEC) and fibroblasts modeled by human mesenchymal stem cells (MSCs). The concentration ranges selected for each drug and investigational agent were based upon clinically achievable concentrations if the clinical Cmax of the agent was known.
Compounds. The drugs and investigational agents: alrizomadlin (APG-115; NSC831270), pelcitoclax (APG-1252; NSC835773), dasminapant (APG-1387;NSC834197), TAK-243 (NSC785004), copanlisib (NSC809693), olaparib (NSC753686), talazoparib (NSC767125), cobimetinib (NSC 768068), eltanexor (KPT-8602, NSC 794443), abemaciclib (NSC 768073), sotorasib (NSC818433), adagrasib (NSC 831453), MRTX-1133 (NSC 836407), Iadademestat (ORY1001, NSC 806812), and RMC-4630 (NSC839698), were obtained from the NCI Developmental Therapeutics Program Chemical Repository. The FDA-approved anticancer drug set is available from the Developmental Therapeutics Program at https://dtp.cancer.gov/organization/dscb/obtaining/available plates.htm. […] The stock solutions were prepared in dimethyl sulfoxide (DMSO, Sigma-Aldrich, St. Louis, MO, cat. D2650) at 800-fold the tested concentration and stored at -70 degrees C prior to their use. All drugs and investigational agents were tested over a range starting from a high concentration at or near the clinical Cmax and decreasing in half-log increments. If the clinical Cmax for an agent had not been determined, the highest concentration tested was 10 microM.
The patient-derived cancer (PDC) cell lines include five colon adenocarcinomas: 186277-243-T-J2-PDC, 616215-338-R-J1-PDC, 439559-082-T-J2-PDC, 463943-066-T-J2-PDC, and 519858-162-T-J1-PDC; three pancreatic carcinomas: 323965-272-R-J2-PDC, 521955-158-R6-J3-PDC, and 521955-158-R2-J5-PDC; two uterine sarcomas: 327498-152-R-J2-PDC and 993429-296-R-J1-PDC; two rhabdomyosarcomas: 755483-174-R-J1-PDC and 772245-204-R-J1-PDC; two soft tissue sarcomas: 126254-015-R-J1-PDC and 494315-158-R-J1-PDC; two malignant fibrous histiocytomas: 317291-083-R-J1-PDC and 596521-263-R-J1-PDC; two breast carcinomas: 171881-019-R-J1-PDC and 885512-296-R-J2-PDC; and one ovarian carcinoma: 6556581-035-R-J-PDC were obtained from the NCI PDMR, (https://pdmr.cancer.gov). The established cell lines HSSY-2 synovial sarcoma (RRID:CVCL 8719), SYO-1 synovial sarcoma (RRID:CVCL_7146), MPNST malignant peripheral neural sheath tumor were obtained from the Sloan Kettering Institute. The following established cell lines were purchased from the American Type Culture Collection (ATCC, Manassas, VA), Sor the received from the NCI repository:, PANC-1 pancreatic carcinoma (CRL-1469, RRID:CVCL_0480), OVCAR-5 ovarian carcinoma (RRID:CVCL_1628), OVCAR-8 ovarian carcinoma (RRID:CVCL_1629), , MCF-7 breast carcinoma (CRL-12584, RRID:CVCL_0031), MDA-MB-231 breast carcinoma (CRL-12532, RRID:CVCL_0062), NCI-H1876 small cell lung carcinoma (CRL-5902, RRID:CVCL_1503), NCI-H510A small cell lung carcinoma (HTB-184, RRID:CVCL_1565), NCI-H1417 (CRL-5869, RRID:CVCL_1469), and NCI-H196 small cell lung carcinoma (CRL-5823, RRID:CVCL_1509). Dr. Peter Houghton (Greehey Children's Cancer Research Institute, University of Texas Health Science Center, San Antonio, TX) provided Rh-18 rhabdomyosarcoma (RRID:CVCL_1659). Pooled donor human umbilical vein endothelial cells (HUVEC, Lonza, cat. CC-2519) and human mesenchymal stem cells (hMSC, Lonza, cat. PT-2501) were purchased from Lonza (Walkersville, MD).
Cell Culture. […]
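Note: compound exposure lasted seven days.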
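Throughout, for viability, T/C: 100% = DMSO vehicle control viability.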

Turning to `C#Cc1c(F)ccc2cc(O)cc(-c3ncc4c(N5CC6CCC(C5)N6)nc(OCC56CCCN5CC(F)C6)nc4c3F)c12` (stereo not drawn), the viability, T/C (in general, the result in the treated group divided by that in the control group, in per cent) (compound 0.0316 µM) was 102% and 92.9% and 100%; the viability, T/C (compound 0.1 µM) is 101% and 80.2% and 97.7%; the viability, T/C (compound 0.316 µM) is 93% and 86.2% and 90.3%; the viability, T/C (compound 1 µM) was 106% and 74.9% and 95.2%; the viability, T/C (compound 3.16 µM) was 117% and 85.7% and 91.6%; the viability, T/C (compound 10 µM) is 109% and 66.4% and 75.8%. Further, the IC50 (in general, the concentration needed to halve the response being measured) (curve of compound) was greater than 10 µM.
For the compound `C=C(F)C(=O)N1CCN(c2nc(OCC3CCCN3C)nc3c2CCN(c2cccc4cccc(Cl)c24)C3)CC1CC#N` (stereo not drawn), the viability, T/C is, setting by setting: (compound 0.0316 µM) 92.1% and 101% and 100%; (compound 0.1 µM) 85.8% and 91.9% and 89.9%; (compound 0.316 µM) 77.3% and 99.5% and 104%; (compound 1 µM) 87.6% and 98.4% and 95.1%; (compound 3.16 µM) 62.3% and 76.7% and 101%. Besides, the 50% inhibitory concentration (IC50) (curve of compound) is 3.97 µM and 4.73 µM and 7.91 µM.
Consider `C=CC(=O)N1CCN(c2nc(=O)n(-c3c(C)ccnc3C(C)C)c3nc(-c4c(O)cccc4F)c(F)cc23)C(C)C1` (stereo not drawn), for which the viability, T/C reads like this: (compound 0.0316 µM) 91.4% and 88.5% and 102%; (compound 0.1 µM) 97.5% and 109% and 89.4%; (compound 0.316 µM) 95.3% and 97% and 98%; (compound 1 µM) 90.4% and 101% and 97.3%; (compound 3.16 µM) 90.9% and 102% and 111%; (compound 10 µM) 79.6% and 97.6% and 109%. Further, the half-maximal inhibitory concentration (IC50) (curve of compound) was greater than 10 µM.
`CCN1C(C(=O)NC23CCC(C(=O)O)(CC2)CC3)C(c2cccc(Cl)c2F)C2(C(=O)Nc3cc(Cl)ccc32)C12CCCCC2` (stereo not drawn): for the setting “compound 0.00949 µM”, the viability, T/C is 107% and 93.5%. The IC50 was greater than 3 µM (compound alone, run of 10/11/2022) and greater than 3 µM (curve of compound).
With `CCN1CCN(Cc2ccc(Nc3ncc(F)c(-c4cc(F)c5nc(C)n(C(C)C)c5c4)n3)nc2)CC1`, the viability, T/C was 90.5% and 99% and 71.9% (compound 0.00316 µM); 88.2% and 90.2% and 79.9% (compound 0.01 µM); 103% and 87.5% and 96.3% (compound 0.0316 µM); 99.7% and 97.4% and 104% (compound 0.1 µM); 100% and 102% and 97% (compound 0.316 µM); 112% and 121% and 102% (compound 1 µM). Besides, the concentration for half-maximal inhibition (IC50) (curve of compound) is greater than 1 µM.
Take `CNC(C)C(=O)NC1CN(S(=O)(=O)c2cccc(S(=O)(=O)N3CCC4CCC(C(=O)NC(c5ccccc5)c5ccccc5)N4C(=O)C(NC(=O)C(C)NC)C3)c2)CCC2CCC(C(=O)NC(c3ccccc3)c3ccccc3)N2C1=O` (stereo not drawn): the viability, T/C is 94.7% and 94.4% and 79% (compound 0.00316 µM); 93.9% [middle of 14 runs] (compound 0.01 µM). Moreover, the half-maximal inhibitory concentration (IC50) (compound alone, run of 10/24/2022) was greater than 1 µM; the IC50 (compound alone, run of 11/15/2022) is greater than 1 µM; the IC50 (curve of compound) is greater than 1 µM.
With `COc1c(OCCCN2CCOCC2)ccc2c3n(c(=NC(=O)c4cnc(N)nc4)nc12)CCN3`, the viability, T/C is, setting by setting: (compound 0.00316 µM) 94.7% and 116% and 107%; (compound 0.01 µM) 91.3% and 98.9% and 106%; (compound 0.0316 µM) 77% and 76.2% and 90.4%; (compound 0.1 µM) 46.1% and 55.2% and 63.9%; (compound 0.316 µM) 41.3% and 42% and 43.8%; (compound 1 µM) 24.4% and 25.4% and 35.3%. Besides, the half-maximal inhibitory concentration (IC50) (curve of compound) is 0.105 µM and 0.175 µM and 0.217 µM.
As to `Cc1c(S(C)(=O)=O)c(-c2cc(F)cc(N3CCN(c4ccc(NS(=O)(=O)c5ccc(NC(CCN6CCC(C(=O)OCCCP(=O)(O)O)CC6)CSc6ccccc6)c(S(=O)(=O)C(F)(F)F)c5)cc4)CC3)c2)c(-c2ccc(Cl)cc2)n1C(C)C` (stereo not drawn), the viability, T/C is 82.6% [middle of 14 runs] (compound 0.1 µM), 67.3% [middle of 14 runs] (compound 0.316 µM), 53.8% [middle of 14 runs] (compound 1 µM) and 45.4% [middle of 14 runs] (compound 10 µM).
Consider `Cc1nc(N2CCC3(CC2)COC(C)C3N)c(CO)nc1Sc1ccnc(N)c1Cl` (stereo not drawn), for which the viability, T/C is, setting by setting: (compound 0.00949 µM) 98.8% and 123% and 100%; (compound 0.03 µM) 104% and 119% and 120%; (compound 0.0949 µM) 112% and 104% and 89.2%; (compound 0.3 µM) 106% and 90.1% and 102%; (compound 0.949 µM) 99.9% and 85.1% and 77%; (compound 3 µM) 91.5% and 57.5% and 54.3%. In addition, the IC50 (curve of compound) was greater than 3 µM.
For the compound `Cn1ncnc1[C@H]1c2n[nH]c(=O)c3cc(F)cc(c23)N[C@@H]1c1ccc(F)cc1`, the viability, T/C is, setting by setting: (compound 0.000316 µM) 84.4% and 103% and 99.8%; (compound 0.001 µM) 98% and 95.3% and 90.9%; (compound 0.00316 µM) 78.3% and 81.4% and 77%; (compound 0.01 µM) 87.9% and 86.6% and 89.3%; (compound 0.0316 µM) 69.3% and 101% and 82.6%; (compound 0.1 µM) 72.6% and 93.3% and 85.5%. Also, where the note is “curve of compound”, the IC50 is greater than 0.1 µM.
As to `NC(=O)C(=Cn1cnc(-c2cc(C(F)(F)F)cc(C(F)(F)F)c2)n1)c1cncnc1`, the viability, T/C is 92.1% and 79.1% and 89.4% (compound 0.000949 µM); 94.4% and 79.8% and 83.2% (compound 0.003 µM); 89.3% and 86.5% and 108% (compound 0.00949 µM); 69.9% and 55.1% and 101% (compound 0.03 µM); 49.8% and 38% and 82.4% (compound 0.0949 µM); 49.2% and 25.1% and 59.7% (compound 0.3 µM). Besides, under “curve of compound”, the half-maximal inhibitory concentration (IC50) is 0.136 µM and 0.0413 µM and > 0.3 µM.
On to `NC1CCC(NC2CC2c2ccccc2)CC1` (stereo not drawn), for which the viability, T/C reads like this: (compound 0.000316 µM) 83.9% and 103% and 99%; (compound 0.001 µM) 81.5% and 83.9% and 100%; (compound 0.00316 µM) 99% and 87.2% and 107%; (compound 0.01 µM) 83.2% and 87% and 97.1%; (compound 0.0316 µM) 84.2% and 98.8% and 103%; (compound 0.1 µM) 77.9% and 70.9% and 91.6%. Moreover, the 50% inhibitory concentration (IC50) (curve of compound) was greater than 0.1 µM.
On to `O=C(c1cc(Cc2n[nH]c(=O)c3ccccc23)ccc1F)N1CCN(C(=O)C2CC2)CC1`, for which the viability, T/C runs as follows: (compound 0.0316 µM) 84.8% and 122% and 103%; (compound 0.1 µM) 109% and 93.1% and 107%; (compound 0.316 µM) 92.4% and 70.8% and 81.9%; (compound 1 µM) 79.6% and 91.7% and 83.5%; (compound 3.16 µM) 80.8% and 88.8% and 89.9%; (compound 10 µM) 59.2% and 60% and 83.6%. For the same compound, under “curve of compound”, the concentration for half-maximal inhibition (IC50) is greater than 10 µM.
As to `O=C(c1ccc(F)c(F)c1Nc1ccc(I)cc1F)N1CC(O)([C@@H]2CCCCN2)C1`, the viability, T/C runs as follows: (compound 0.00316 µM) 108% and 99.4% and 97.4%; (compound 0.01 µM) 94.5% and 97% and 98.1%; (compound 0.0316 µM) 87.7% and 96.5% and 90.6%; (compound 0.1 µM) 107% and 102% and 72.1%; (compound 0.316 µM) 105% and 107% and 108%; (compound 1 µM) 49.5% and 60.2% and 114%. For the setting “curve of compound”, the IC50 was 0.99 µM and > 1 µM.
